The record followed here is patent US11053175B2, “Thioether compounds as nitrification inhibitors” (BASF SE, priority 2015, dated 2021).

Molecules are shown by their SMILES.

By inhibition is commonly meant the share of the control response that was lost under treatment.

In one assay the test system is nitrification in soil. The assay is described as follows: Inhibition of nitrification in soil (48 well plate, ammonium sulfate, colour reaction read at 540 nm). The format is cell-based. Conditions: dose of 3% a.i./NH, best value obtained, read-out: IN (best inhibition value, inhibition of nitrification = 100 - % activity compared to control).
As to `C#CCSc1sc2ccccc2[n+]1C` [Compound 2-1], the inhibition at 3 % strength amounted to 20%. With `C#CCS/C(N)=N\N=C\c1ccc(N(C)C)cc1` [Compound 2-2], the inhibition at 3 % strength was determined as 20%.

`C#CC[S+]([O-])Cc1ccc(OC)cc1` (stereo not shown) [Compound 2-3]: the inhibition at 3 % strength amounted to 23%. As to `C#CCS(=O)(=O)Cc1ccccc1` [Compound 2-4], the inhibition at 3 % strength worked out at 23%. Still for that read-out and setting: the result for `C#CC[S+]([O-])Cc1ccc(Cl)cc1` (stereo not shown) [Compound 2-5] reads 24%; that for `C#CCSCc1ccc(Cl)cc1` [Compound 2-6], 28%. Same read-out and setting: then `C#CCSCc1ccccc1` [Compound 2-7], with 28%.

Consider `C#CCSc1nnc(N)s1` [Compound 2-8], for which the inhibition at 3 % strength was 38%. Same read-out and setting: then `C#CCSc1ccccc1` [Compound 2-9], with 48%; and `C#CCSCC#C` [Compound 2-10], with 97%.

The test system of the next assay is nitrification in soil. The description is as above. The format is cell-based. The conditions noted are these: 72 h, dose of 10 ppm; soil, up to 72 hrs at room temperature; control DMSO only; best value obtained; read-out: IN (best inhibition value, inhibition of nitrification = 100 - % activity compared to control). Here is the method: The compounds of the invention have been tested as follows in terms of the inhibition of nitrification: Soil was sampled fresh from a field (e.g. Limburgerhof), dried and sieved through a 500 μm sieve. Approximately 200 mg of soil were placed into each well of a 48 well plate. Compounds, or DMSO alone, were added at a concentration of 10 ppm, dissolved in 1% DMSO. 6 μmol ammonium sulfate was added per well as well as 4.8 mg NaClO3.
Subsequently, the samples were incubated at room temperature for up to 72 hrs. After the incubation period 64 mg KCl were added and mixed. 25 μl of the supernatant were placed into a fresh plate and 260 μl of a color reaction solution (from Merck Nr 1.11799.0100) were added.
Measurements were taken with a Tecan plate Reader at 540 nm wavelength.
Inhibition is calculated as x=% activity compared to control, and converted to 100-x to give the value of inhibition, rather than activity.
For the compound `C#CCS/C(N)=N\N=C\c1ccc(OC)cc1` [Compound 1-1], the inhibition at 10 ppm was found to be 42%. Turning to `C#CCSC1=NCCN1/N=C/c1ccc(C)cc1` [Compound 1-3], the inhibition at 10 ppm is 68%.

As for `C#CCSc1ncccn1` [Compound 1-6], the inhibition at 10 ppm came out at 59%. Still for that read-out and setting: the result for `C#CC[S+]([O-])CC#C` [Compound 1-7] reads 72%. On the same count and under the same terms, then `C#CCS(=O)(=O)CC#C` [Compound 1-8], with 70%; and `C#CCS/C(C)=N\O` [Compound 1-9], with 67%; and `C#CCS/C(N)=N\N=C\c1ccc(F)cc1` [Compound 1-10], with 59%. The same measure, in the same setting: the result for `C#CCSc1nc2ccsc2c(=O)n1C` [Compound 1-11] reads 55%.

On to `C#CCSc1nc2c(cc1C#N)CCC2` [Compound 1-12], for which the inhibition at 10 ppm worked out at 52%. Still for that read-out and setting: the result for `C#CCSc1nnc(S)s1` [Compound 1-13] reads 51%; that for `C#CCSC1=NNC(c2ccccn2)S1` (stereo not shown) [Compound 1-17], 46%; that for `C#CCSc1sc2ccccc2[n+]1C` [Compound 1-18], 44%.

`C#CCSc1nccn1-c1ncc(C(F)(F)F)cc1Cl` [Compound 1-19]: the inhibition at 10 ppm was found to be 42%. The same measure, in the same setting: the result for `C#CCCS/C(C)=N\O` [Compound 1-20] reads 48%; that for `C#CCSc1cnccn1` [Compound 1-21], 69%; that for `C#CCSc1cnc2ccccc2n1` [Compound 1-23], 33%.

The assay is the same for the next values; noted with them: dose of 10 ppm; soil, up to 72 hrs at room temperature; control DMSO only; best value obtained.
With `C#CCSc1sc2ccccc2[n+]1C.[Br-]` [Compound 1-22], the “IN (best inhibition value, inhibition of nitrification = 100 - % activity compared to control)” value worked out at 42%.

The assay is the same for the next values; noted with them: reference compound, same conditions, dose of 10 ppm; read-out: IN (inhibition value, inhibition of nitrification).
As for `C#Cc1ccccc1` [Phenylacetylene, phenylacetylene, reference compound], the inhibition at 10 ppm worked out at 7%.
